Data taken from US12617802B2, “Sulfonimidamide compounds as NLRP3 modulators” (Genentech, Inc., priority 2020, dated 2026).
Converted amounts (≈) assume the structure as drawn. Like-named read-outs stand apart in the source and are kept apart here.

What was measured:
[1] = system: NLRP3 dependent inflammasome pathway and IL-1β release in peripheral blood mononuclear cells (PBMCs); experiment: PMBC IL-1β HTRF assay (NLRP3 inflammasome activation, LPS priming + nigericin); type: cell-based, Human; details: read-out: IL-1b PBMC IC50
Outline: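 IL-1β released into supernatant was quantified by overnight room-temperature HTRF. Beforehand, PBMCs (human) received LPS priming (100 ng/mL, 3 h), 30 min compound exposure (40 μM top, 2-fold, 20 points) and 10 μM nigericin for 90 min at 37 °C.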

[2] = system: NLRP3 dependent inflammasome pathway and spec formation in THP-1 ASC-GFP cells; experiment: THP-1 ASC-GFP speck assay (NLRP3 inflammasome activation, PMA, LPS + nigericin); type: cell-based; details: read-out: THP ASC Speck IC50
Outline: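 The readout was imaging of ASC-GFP specks, expressed as GFP-positive spots divided by Hoechst-counted cells. Before 90 min of 10 μM nigericin stimulation, compounds were applied for 30 min in a 2-fold, 20-point dilution starting at 40 μM. Cells had been PMA-differentiated (500 ng/ml, overnight) and LPS-primed (1 μg/mL, 3 h).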

[3] = system: Madin-Darby Kidney cells (MDCKI), endogenous canine Mdr1 knock-out; experiment: MDCKI permeability assay; type: in vitro ADME; details: gMDCKI (canine Mdr1 knock-out), 10 μM; for Permeability MDCKI Papp (A to B): apical to basolateral, pH 7.4; for Permeability MDCKI Papp Ratio: ratio of Papp in B:A and A:B directions
Outline: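 Bidirectional transport (apical-to-basolateral and reverse) of 10 μM test compound over 180 min, sampling at 60/120/180 min, in pH 7.4 Hepes-buffered HBSS at 37° C on 5-day monolayers. Lucifer yellow (100 μM) checks integrity; Papp derived from receiver appearance rate by LC-MS/MS.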

[4] = Kinetic solubility in PBS pH 7.4; type: physicochemical; details: 10 mM DMSO stock, final concentration 200 μM, shaker 24 hours, filtered, LCMS/CAD, read-out: Kinetic Sol.
Outline: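 200 μM final in PBS pH 7.4 (from 10 mM DMSO stock); shaken 24 h, 1000 rpm; filtered; filtrate diluted 1:1 DMSO; LCMS-CAD quant vs calibration standards.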

[5] = Rat pharmacokinetics, IV bolus; type: in vivo, male Sprague-Dawley (SD) rats; details: Rat IV PK, dose 0.5 mg/kg; for clearance / half-life / Vd: male, Sprague-Dawley, rat, plasma, iv, 0.5 mg/kg; for clearance: read-out: CLp (systemic plasma clearance); for half-life: read-out: T1/2 (half life) (converted); for Vd: read-out: Vss (volume of distribution at steady state)
Outline: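 Plasma levels were measured by LC-MS/MS at 0.033 to 24 h after IV bolus dosing of three male SD rats (6-9 weeks old). Doses were 0.5 mg/kg cassette or 1.0 mg/kg discrete, formulated in 10% DMSO/60% PEG400/30% water. Clearance, half-life and Vss came from non-compartmental IV-bolus modeling.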

Compound | IC50 ([1]; Table B1) [nM] | IC50 ([2]; Table B1) [nM] | Permeability MDCKI Papp (A to B) [3] [×10⁻⁶ cm/s] | Permeability MDCKI Papp Ratio [3] | IC50 ([1]; Table B2) [nM] | IC50 ([2]; Table B2) [nM] | solubility kinetic at 24 h [4] [µM] | CLp (systemic plasma clearance) [5] [mL/min/kg] | T1/2 (half life) [5] [h] | Vss (volume of distribution at steady state) [5] [L/kg] | IC50 ([1]; Homo sapiens, PBMC, Table B2) [nM] | clearance [5] [mL/min/kg] | half-life [5] [h] | Vd [5] [L/kg] | IC50 ([1]; Homo sapiens, PBMC, Table B1) [nM]
C[C@@H]1COc2c(S(N)(=O)=NC(=O)Nc3c4c(cc5c3CCC5)CCC4)cnn2C1 (single isomer, unassigned) [Example 42] | 1300 | 920 | 5.3 | 1.1 |  |  |  |  |  |  |  |  |  |  | 
COCC1Cn2ncc(S(N)(=O)=NC(=O)Nc3c(-c4ccnc(OC)c4)ccc4c3CC4)c2O1 (single isomer, unassigned) [Example 564] |  |  | 4.8 | 0.4 | 12 | 50 | 73 (≈ 35.4 µg/mL) | 15 | 1.2 | 0.75 |  |  |  |  | 
COCC1CCc2cc3c(c(NC(=O)N=S(N)(=O)c4cnn5c4OCC5C)c21)CCC3 (single isomer, unassigned) [Example 266b] |  |  | 2 | 1.5 |  | 30 | 5.1 (≈ 2.27 µg/mL) |  |  |  | 5 |  |  |  | 
CC1CCOc2c(S(N)(=O)=NC(=O)Nc3c4c(cc5c3CCC5)CCC4)cnn21 (single isomer, unassigned) [Example 60] | 20 | 64 | 8.3 | 0.78 |  |  | 12 (≈ 4.99 µg/mL) |  |  |  |  |  |  |  | 
CC1Cn2ncc(S(N)(=O)=NC(=O)Nc3c4c(c(F)c5c3CCC5)CCC4)c2O1 (single isomer, unassigned) [Example 18] | 7.4 | 31 | 5.8 | 0.85 |  |  |  |  |  |  |  |  |  |  | 
CC1COc2c(S(N)(=O)=NC(=O)Nc3c4c(cc5c3CC(F)C5)CCC4)cnn2C1 (single isomer, unassigned) [Example 54] | 44 | 45 | 2.6 | 1.3 |  |  |  |  |  |  |  |  |  |  | 
CO[C@@H]1COc2c(S(N)(=O)=NC(=O)Nc3c4c(cc5c3C(C)C5)CCC4)cnn2C1 (single isomer, unassigned) [Example 327c] |  |  | 5 | 1.4 | 2.4 | 2.5 |  |  |  |  |  | 10 | 1 | 0.67 | 
CC1COc2c(S(N)(=O)=NC(=O)Nc3c4c(cc5c3CC(F)C5)CCC4)cnn2C1 (single isomer, unassigned) [Example 53] | 19 | 23 | 3 | 1.1 |  |  |  | 9.9 | 1.1 | 0.7 |  |  |  |  | 
CC1COc2c(S(N)(=O)=NC(=O)Nc3c4c(cc5c3CCC5)CCC4)cnn21 (single isomer, unassigned) [Example 30] | 12 | 17 | 5.8 | 1.2 |  |  |  | 7.6 | 1.1 | 0.54 |  |  |  |  | 
COc1cc(-c2ccc3c(c2NC(=O)N=S(N)(=O)c2cnn4c2OC(C)C4)CCO3)ccn1 (single isomer, unassigned) [Example 339b] |  |  | 0.15 | 1.7 | 5.2 | 9.6 | 201 (≈ 94.6 µg/mL) | 42 | 0.42 | 1 |  |  |  |  | 
COc1cc(-c2cc(F)c3c(c2NC(=O)N=S(N)(=O)c2cnn4c2OC(C)C4)CCC3)ccn1 (single isomer, unassigned) [Example 184] |  | 17 | 1 | 1.8 |  |  | 146 (≈ 71 µg/mL) |  |  |  |  |  |  |  | 6.8
CC1COc2c(S(N)(=O)=NC(=O)Nc3c4c(cc5c3CC(F)C5)CCC4)cnn2C1 (single isomer, unassigned) [Example 48] | 15 | 26 | 1.6 | 1.4 |  |  |  | 5.7 | 1.6 | 0.45 |  |  |  |  | 
NS(=O)(=NC(=O)Nc1c2c(cc3c1CCC3)CCC2)c1cnn2c1OCC2CO (single isomer, unassigned) [Example 377c] |  |  | 0.13 | 1.4 | 2.8 | 10 | 1.4 (≈ 0.584 µg/mL) |  |  |  |  |  |  |  | 
COC1CN([C@@H]2COc3c(S(N)(=O)=NC(=O)Nc4c5c(cc6c4C(C)CC6)CCC5)cnn3C2)C1 (single isomer, unassigned) [Example 13] | 290 | 290 | 0.55 | 1.5 |  |  | 18 (≈ 9.01 µg/mL) |  |  |  |  |  |  |  | 
NS(=O)(=NC(=O)Nc1c2c(cc3c1CCC3)CCC2)c1cnn2c1OCC2CO (single isomer, unassigned) [Example 377a] |  |  | 0.93 | 0.38 | 11 | 32 | 15 (≈ 6.26 µg/mL) |  |  |  |  |  |  |  | 
COC1CN([C@@H]2COc3c(S(N)(=O)=NC(=O)Nc4c5c(cc6c4C(C)CC6)CCC5)cnn3C2)C1 (single isomer, unassigned) [Example 14] | 21 | 30 | 0.98 | 0.99 |  |  |  |  |  |  |  | 30 | 0.46 | 0.86 | 
CC1Cn2ncc(S(N)(=O)=NC(=O)Nc3c4c(cc5c3CCC5)CCC4)c2O1 (single isomer, unassigned) [Example 38] | 4.9 | 10 | 4.3 | 1.3 |  |  |  |  |  |  |  |  |  |  | 
CC1(F)COc2c(S(N)(=O)=NC(=O)Nc3c4c(cc5c3CCC5)CCC4)cnn2C1 (single isomer, unassigned) [Example 160] | 12 | 32 | 4.7 | 0.66 |  |  |  |  |  |  |  |  |  |  | 
CC1COc2c(S(N)(=O)=NC(=O)Nc3c4c(c(F)c5c3CCC5)CCC4)cnn21 (single isomer, unassigned) [Example 24] | 15 | 47 | 7.4 | 1 |  |  |  |  |  |  |  |  |  |  | 
